Earlier results, collected in publication PMC9800952 (Asian Journal of Pharmaceutical Sciences, 2022).

Conditions: pH 7

LogD (pH7): 4.28
Compound: CC(C)OC(=O)CCC/C=C\C[C@@H]1[C@@H](CC[C@@H](O)CCc2ccccc2)[C@H](O)C[C@@H]1O [latanoprost]
